The test system of experiment [1] is Ewing's sarcoma cells with decreased levels of GSTM4. The experiment can be described thus: MTT survival assay, wild-type (luc-RNAi) versus reduced GSTM4 (GSTM4-4-RNAi) Ewing's sarcoma cells. It counts as cell-based, human. How it is done:
Chemotherapeutic sensitivity assays. The sensitivity of Ewing's sarcoma cells to chemotherapeutic agents was determined via the following experimental procedures. The indicated Ewing's sarcoma cells were seeded at a density of 2×10^4 cells/well in 24-well plates on day-0. On day 1, cells were incubated with varying concentrations of the indicated drug or drugs for 3 days. Subsequently, MTT cell proliferation assays were performed according to the manufacturer's instructions (Cayman Chemical Company, Ann Arbor, Mich.).
To test whether GSTM4 contributed to the chemotherapeutic resistance profile of Ewing's sarcoma, wild-type (luc-RNAi) and reduced GSTM4 (GSTM4-4-RNAi) cells were treated with increasing dosages of chemotherapeutic drugs and tested using MTT survival assays. The chemotherapeutic agents that were tested included etoposide, doxorubicin, and melphalan.
It was further determined that GSTM4 can alter the sensitivity of Ewing's sarcoma cells for fenretinide. […] It was further determined that decreased GSTM4 levels can change intracellular redox potential.
JS-K (provided by Dr. Paul Shami at the University of Utah) is a GST-activated prodrug with potent anti-neoplastic activity. A673, Ewing's sarcoma, cells with wild type (Luc-RNAi) or decreased GSTM4 levels (GSTM4-RNAi infected cells) were seeded in 24-well plates at a density of 2×10^4 cells/well. GSTM4 decreased cells or negative controls were treated with increasing concentrations of JS-K (0, 0.3125, 0.625, 1.25, 2.5, 5, or 10 μM) for 72 hours, followed by an MTT cell viability analysis.
A general note: Tetrazolium dyes change colour on reduction, which living cells bring about.

Experiment [2] concerns A673 cells. The experiment can be described thus: MTT cell proliferation assay in A673 Ewing's sarcoma cells. Format: cell-based. Conditions: Homo sapiens, 72 h, 3 days, read-out: IC50, inhibition of A673 cell proliferation.
Experimental: The A673 cells were seeded at a density of 2×10^4 cells/well in 24-well plate on day 0.

Regarding `CCOC(=O)N1CCN(/[N+]([O-])=N/Oc2ccc([N+](=O)[O-])cc2[N+](=O)[O-])CC1` [JS-K, O^2-(2,4-Dinitrophenyl)1-[(4-Ethoxycarbonyl)piperazin-1-yl]diazen-1-ium-1,2-diolate], the “Sensitivity of cells with decreased GSTM4 levels to the drug compared to control cells” value in experiment [1] is on record as “less sensitive”.

For `O=[N+]([O-])c1ccc(SCCCCCCO)c2nonc12` [NBDHEX, 6-(7-nitro-2,1,3-benzoxadiazol-4-ylthio) hexanol], the IC50 in experiment [2] was 500 nM.

`COc1cccc2c1C(=O)c1c(O)c3c(c(O)c1C2=O)C[C@@](O)(C(=O)CO)C[C@@H]3O[C@H]1C[C@H](N)[C@H](O)[C@H](C)O1` [doxorubicin]: in experiment [1], the “Sensitivity of cells with decreased GSTM4 levels to the drug compared to control cells” value is reported as “not sensitive”.

Regarding `COc1cc([C@@H]2c3cc4c(cc3[C@@H](O[C@@H]3O[C@@H]5CO[C@@H](C)O[C@H]5[C@H](O)[C@H]3O)[C@H]3COC(=O)[C@H]23)OCO4)cc(OC)c1O` [etoposide], the “Sensitivity of cells with decreased GSTM4 levels to the drug compared to control cells” value in experiment [1] is “increase in sensitivity”.

Take `CC1=C(/C=C/C(C)=C/C=C/C(C)=C/C(=O)Nc2ccc(O)cc2)C(C)(C)CCC1` [fenretinide]: the “Sensitivity of cells with decreased GSTM4 levels to the drug compared to control cells” value in experiment [1] is on record as “more sensitive”.
